Common to all, as to format: cell-based
One assay deals with hGLP-1R (Homo sapiens, UniProt P43220). The assay can be described thus: Functional cAMP formation (HTRF) in HEK-293 clonal cells expressing hGLP-1R, 0.1% bovine casein, without or with 1.0% human serum albumin. The settings on record: for Emax: percent of maximal response to GLP-1(7-36)NH2; for EC50: cAMP. The arrangement: expressed in transfected cells. The procedure, abridged:
(§1)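 Cells were stimulated with peptide for 30 min at 37° C, then intracellular cAMP was measured by competitive HTRF (665/620 nm ratio) and converted to nM using a cAMP standard curve. Relative EC50 and Emax came from four-parameter logistic fits of percent maximal response against peptide concentration.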
For orientation: Cyclic AMP is a second messenger, typically raised through Gs and lowered through Gi signalling.

The target in a further assay is T1, hGCGR (Homo sapiens, UniProt P47871).
T1 construct: expressed in transfected cells
Kind of assay: Functional cAMP formation (HTRF) in HEK-293 clonal cells expressing hGCGR, 0.1% bovine casein, without or with 1.0% human serum albumin. The settings on record: 37° C. The procedure, abridged:
as §1

In another assay the target is T2, hGIPR (Homo sapiens, UniProt P48546).
T2 construct: expressed in transfected cells
T2 sequence (P48546 22-466): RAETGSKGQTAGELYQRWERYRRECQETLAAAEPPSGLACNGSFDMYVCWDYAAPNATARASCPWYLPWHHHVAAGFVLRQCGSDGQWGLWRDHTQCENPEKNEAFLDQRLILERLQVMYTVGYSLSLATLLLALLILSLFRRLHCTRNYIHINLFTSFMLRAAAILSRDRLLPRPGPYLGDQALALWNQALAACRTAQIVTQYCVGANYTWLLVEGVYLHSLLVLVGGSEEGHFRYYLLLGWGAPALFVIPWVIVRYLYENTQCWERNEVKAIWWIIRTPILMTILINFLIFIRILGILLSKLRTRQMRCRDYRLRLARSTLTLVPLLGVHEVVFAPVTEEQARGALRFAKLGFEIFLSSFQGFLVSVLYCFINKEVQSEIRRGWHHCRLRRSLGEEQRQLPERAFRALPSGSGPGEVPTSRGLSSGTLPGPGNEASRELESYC
The assay can be described thus: Functional cAMP formation (HTRF) in HEK-293 clonal cells expressing hGIPR, 0.1% bovine casein, without or with 1.0% human serum albumin. The settings on record: for Emax: percent of maximal response to GIP(1-42)NH2; for EC50: cAMP. The method, boiled down: as §1

The mark [1] stands for this setting: HEK293, read-out: hGLP-1R Emax, % ± SEM, cAMP, 37° C., 0.1% bovine casein and 1.0% human serum albumin.
Setting [2] is: HEK293, read-out: hGLP-1R Emax, % ± SEM, cAMP, 37° C., 0.1% bovine casein, arithmetic mean.
[3] abbreviates: hGLP-1R EC50, nM (SEM, n), 37° C., 0.1% bovine casein (no human serum albumin), geometric mean.
Where [4] appears, read: hGLP-1R EC50, nM (SEM, n), 37° C., 0.1% bovine casein and 1.0% human serum albumin, geometric mean (SEM, n).
Where [5] appears, read: hGCGR EC50, nM (SEM, n), cAMP, 0.1% bovine casein (no human serum albumin), geometric mean.
The mark [6] stands for this setting: hGCGR EC50, nM (SEM, n), cAMP, 0.1% bovine casein and 1.0% human serum albumin, geometric mean (SEM, n).
Where [7] appears, read: HEK293, read-out: hGIPR Emax, % ± SEM, cAMP, 37° C., 0.1% bovine casein and 1.0% human serum albumin.
The mark [8] stands for this setting: hGIPR EC50, nM (SEM, n), 37° C., 0.1% bovine casein (no human serum albumin), geometric mean.

These results are taken from US20230265151A1, “GIP/GLP1 CO-AGONIST COMPOUNDS” (priority 2020, published 2023).

SMILES strings stand for the structures. Where two headings read alike, the source gives them in different places. *1 amine or outer side, *2 acyl side, *3 side chain or, on linkers, in order; H or OH if unused. Where a SMILES comes first, the peptide text is derived from it. Side-chain parts run from the residue outwards. [ ]: non-standard residue; d: D form. The star is where a group is joined. Decanoyl(10-(4-HOOC-PhO)) = O=C(O)c1ccc(OCCCCCCCCCC(=O)*)cc1; αMePhe(2-F) = C[C@](N)(Cc1ccccc1F)C(=O)O; γGlu = O=C(O)[C@H](CCC(=O)[*:2])N[*:1]; αMeY = C[C@](N)(Cc1ccc(O)cc1)C(=O)O; αMeL = CC(C)C[C@](C)(N)C(=O)O; Orn = NCCC[C@H](N)C(=O)O; AEEA = NCCOCCOCC(=O)O; Aib = CC(C)(N)C(=O)O Bounds are passed on as bounds.

T1 sequence (P47871 26-477): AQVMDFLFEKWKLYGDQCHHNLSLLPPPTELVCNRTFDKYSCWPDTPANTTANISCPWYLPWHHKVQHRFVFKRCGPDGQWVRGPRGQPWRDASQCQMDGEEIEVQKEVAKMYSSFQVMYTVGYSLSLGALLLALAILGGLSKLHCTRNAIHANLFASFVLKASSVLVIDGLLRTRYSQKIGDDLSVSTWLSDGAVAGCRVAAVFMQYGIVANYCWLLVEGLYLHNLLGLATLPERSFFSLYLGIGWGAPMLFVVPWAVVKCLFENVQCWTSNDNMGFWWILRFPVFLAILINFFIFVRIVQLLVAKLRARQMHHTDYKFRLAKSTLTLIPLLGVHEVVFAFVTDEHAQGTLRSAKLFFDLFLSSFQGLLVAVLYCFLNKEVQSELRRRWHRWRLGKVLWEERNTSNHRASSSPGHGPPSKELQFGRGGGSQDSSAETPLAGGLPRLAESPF
Sequence of hGLP-1R (P43220 24-463): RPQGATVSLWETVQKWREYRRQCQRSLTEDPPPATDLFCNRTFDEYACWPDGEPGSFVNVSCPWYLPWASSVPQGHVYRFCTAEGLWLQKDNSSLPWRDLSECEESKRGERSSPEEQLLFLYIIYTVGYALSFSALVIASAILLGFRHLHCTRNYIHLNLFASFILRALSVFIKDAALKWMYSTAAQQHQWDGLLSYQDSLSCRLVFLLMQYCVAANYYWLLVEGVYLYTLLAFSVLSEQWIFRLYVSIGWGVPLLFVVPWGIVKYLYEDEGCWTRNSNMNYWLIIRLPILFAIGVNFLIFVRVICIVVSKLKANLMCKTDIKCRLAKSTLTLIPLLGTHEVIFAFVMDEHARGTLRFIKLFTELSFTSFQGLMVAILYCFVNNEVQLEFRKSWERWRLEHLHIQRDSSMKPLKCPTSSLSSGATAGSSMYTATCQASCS

For orientation: Emax means the maximal effect, on the per cent scale that the assay sets. A word on the EC50: it is the concentration at which the effect is half-maximal. Turning to `CC[C@H](C)[C@H](NC(=O)[C@H](CC(C)C)NC(=O)[C@](C)(Cc1ccc(O)cc1)NC(=O)[C@@H](CCC(=O)O)NC(=O)[C@@H](NC(=O)[C@H](Cc1ccccc1)NC(=O)[C@H](CCCCNC(=O)COCCOCCNC(=O)COCCOCCNC(=O)CC[C@H](NC(=O)CCCCCCCCCOc1ccc(C(=O)O)cc1)C(=O)O)NC(=O)C(C)(C)NC(=O)[C@H](CCC(N)=O)NC(=O)[C@H](C)NC(=O)[C@H](CCCCNC(=O)COCCOCCNC(=O)COCCOCCNC(=O)CC[C@H](NC(=O)CCCCCCCCCOc1ccc(C(=O)O)cc1)C(=O)O)NC(=O)[C@H](CCCN)NC(=O)[C@H](CC(=O)O)NC(=O)[C@H](CC(C)C)NC(=O)[C@](C)(CC(C)C)NC(=O)[C@@H](NC(=O)C(C)(C)NC(=O)[C@@H](NC(=O)[C@H](CC(=O)O)NC(=O)[C@H](CO)NC(=O)[C@@H](NC(=O)[C@](C)(Cc1ccccc1F)NC(=O)[C@@H](NC(=O)CNC(=O)[C@H](CCC(=O)O)NC(=O)C(C)(C)NC(=O)[C@@H](N)Cc1ccc(O)cc1)[C@@H](C)O)[C@@H](C)O)C(C)C)[C@@H](C)CC)[C@@H](C)CC)C(=O)N[C@@H](CCCN)C(=O)NCC(=O)NCC(=O)N1CCC[C@H]1C(=O)N[C@@H](CO)C(=O)N[C@@H](CO)C(=O)NCC(=O)N[C@@H](C)C(=O)N1CCC[C@H]1C(=O)N1CCC[C@H]1C(=O)N1CCC[C@H]1C(=O)N[C@@H](CO)C(N)=O` [Example 410] (H-Y[Aib]EGT[αMePhe(2-F)]TSDV[Aib]I[αMeL]LD[Orn]K([AEEA-AEEA-γGlu-Decanoyl(10-(4-HOOC-PhO))])AQ[Aib]K([AEEA-AEEA-γGlu-Decanoyl(10-(4-HOOC-PhO))])FI[dE][αMeY]LI[Orn]GGPSSGAPPPS-NH2), the Emax at hGLP-1R (setting [1]) was 93.1%; at hGLP-1R (setting [2]), 94%; at hGIPR (setting [7]) it was 86.4%. The EC50 was 0.251 nM on hGLP-1R (setting [3]); 11 nM at hGLP-1R (setting [4]); more than 9950 nM at hGCGR (setting [5]); more than 9950 nM on hGCGR (setting [6]); 0.0118 nM at hGIPR (setting [8]); 1.28 nM on hGIPR (hGIPR EC50, nM (SEM, n), 37° C., 0.1% bovine casein and 1.0% human serum albumin, geometric mean (SEM, n)).
Turning to `CC[C@H](C)[C@H](NC(=O)[C@H](CCCN)NC(=O)[C@H](CC(=O)O)NC(=O)[C@H](CC(C)C)NC(=O)[C@](C)(CC(C)C)NC(=O)[C@@H](NC(=O)[C@](C)(CO)NC(=O)[C@@H](NC(=O)[C@H](CC(=O)O)NC(=O)[C@H](CO)NC(=O)[C@@H](NC(=O)[C@](C)(Cc1ccccc1F)NC(=O)[C@@H](NC(=O)CNC(=O)[C@H](CCC(=O)O)NC(=O)C(C)(C)NC(=O)[C@@H](N)Cc1ccc(O)cc1)[C@@H](C)O)[C@@H](C)O)C(C)C)[C@@H](C)CC)C(=O)N[C@@H](C)C(=O)N[C@@H](CCC(N)=O)C(=O)NC(C)(C)C(=O)N[C@@H](CCC(=O)O)C(=O)N[C@@H](Cc1ccccc1)C(=O)N[C@H](C(=O)N[C@@H](CCCCNC(=O)COCCOCCNC(=O)COCCOCCNC(=O)CC[C@H](NC(=O)CCCCCCCCCCCCC(=O)O)C(=O)O)C(=O)N[C@@](C)(Cc1ccc(O)cc1)C(=O)N[C@@H](CC(C)C)C(=O)N[C@H](C(=O)N[C@@H](CCCCNC(=O)COCCOCCNC(=O)COCCOCCNC(=O)CC[C@H](NC(=O)CCCCCCCCCCCCC(=O)O)C(=O)O)C(=O)NCC(=O)NCC(=O)N1CCC[C@H]1C(=O)N[C@@H](CO)C(=O)N[C@@H](CO)C(=O)NCC(=O)N[C@@H](C)C(=O)N1CCC[C@H]1C(=O)N1CCC[C@H]1C(=O)N1CCC[C@H]1C(=O)N[C@@H](CO)C(N)=O)[C@@H](C)CC)[C@@H](C)CC` [Example 305], the Emax on hGLP-1R (HEK293, 0.1% bovine casein and 1.0% human serum albumin, 37° C., read-out: hGLP-1R Emax, % ± SEM) is 125%; at hGIPR (HEK293, 0.1% bovine casein and 1.0% human serum albumin, 37° C., read-out: hGIPR Emax, % ± SEM), 95.4%; on hGIPR (HEK293, cAMP, 37° C., 0.1% bovine casein, arithmetic mean, read-out: hGIPR Emax, % ± SEM), 105%. Further, the EC50 is 0.629 nM at hGLP-1R (37° C., 0.1% bovine casein (no human serum albumin), geometric mean, read-out: hGLP-1R EC50, nM (SEM, n)); more than 9950 nM at hGCGR (0.1% bovine casein and 1.0% human serum albumin, geometric mean, read-out: hGCGR EC50, nM (SEM, n)); more than 9950 nM on hGCGR (cAMP, 0.1% bovine casein (no human serum albumin), geometric mean, read-out: hGCGR EC50, nM (SEM, n)); 0.0289 nM at hGIPR (37° C., 0.1% bovine casein (no human serum albumin), geometric mean, read-out: hGIPR EC50, nM (SEM, n)).
In the case of `CC[C@H](C)[C@H](NC(=O)[C@H](CC(C)C)NC(=O)[C@](C)(Cc1ccc(O)cc1)NC(=O)[C@@H](CCC(=O)O)NC(=O)[C@@H](NC(=O)[C@H](Cc1ccccc1)NC(=O)[C@H](CCC(=O)O)NC(=O)C(C)(C)NC(=O)[C@H](CCC(N)=O)NC(=O)[C@H](C)NC(=O)[C@H](CCCCNC(=O)COCCOCCNC(=O)COCCOCCNC(=O)CC[C@H](NC(=O)CCCCCCCCCOc1ccc(C(=O)O)cc1)C(=O)O)NC(=O)[C@H](CCCN)NC(=O)[C@H](CC(=O)O)NC(=O)[C@H](CC(C)C)NC(=O)[C@](C)(CC(C)C)NC(=O)[C@@H](NC(=O)C(C)(C)NC(=O)[C@@H](NC(=O)[C@H](CC(=O)O)NC(=O)[C@H](CO)NC(=O)[C@@H](NC(=O)[C@](C)(Cc1ccccc1F)NC(=O)[C@@H](NC(=O)CNC(=O)[C@H](CCC(=O)O)NC(=O)C(C)(C)NC(=O)[C@@H](N)Cc1ccc(O)cc1)[C@@H](C)O)[C@@H](C)O)C(C)C)[C@@H](C)CC)[C@@H](C)CC)C(=O)N[C@@H](CCC(=O)O)C(=O)NCC(=O)NCC(=O)N1CCC[C@H]1C(=O)N[C@@H](CO)C(=O)N[C@@H](CO)C(=O)NCC(=O)N[C@@H](C)C(=O)N1CCC[C@H]1C(=O)N1CCC[C@H]1C(=O)N1CCC[C@H]1C(=O)N[C@@H](CO)C(=O)N[C@@H](CCCCNC(=O)COCCOCCNC(=O)COCCOCCNC(=O)CC[C@H](NC(=O)CCCCCCCCCOc1ccc(C(=O)O)cc1)C(=O)O)C(N)=O` [Example 380] (H-Y[Aib]EGT[αMePhe(2-F)]TSDV[Aib]I[αMeL]LD[Orn]K([AEEA-AEEA-γGlu-Decanoyl(10-(4-HOOC-PhO))])AQ[Aib]EFI[dE][αMeY]LIEGGPSSGAPPPSK([AEEA-AEEA-γGlu-Decanoyl(10-(4-HOOC-PhO))])-NH2), the Emax on hGLP-1R (setting [1]) turned out to be 94.5%; at hGLP-1R (setting [2]), 96.2%; at hGIPR (setting [7]), 93.5%; at hGIPR (HEK293, read-out: hGIPR Emax, % ± SEM, cAMP, 37° C., 0.1% bovine casein, arithmetic mean), 100%. Also, the EC50 at hGLP-1R (setting [3]) is 0.176 nM; at hGLP-1R (setting [4]), 28 nM; on hGCGR (setting [5]) it was more than 9950 nM; at hGCGR (setting [6]), more than 9950 nM; at hGIPR (setting [8]), 0.0209 nM.
